Like-named read-outs stand apart in the source and are kept apart here.
Target: T1, F508delCFTR (Homo sapiens, UniProt P13569, DEL508-508)
T1 construct: expressed in transfected cells; host or cells: CFBE41o- human lung-derived epithelial cells (CFBE4lo-F508delCFTR-HRP), doxycycline-inducible
Assay: Cell Surface Expression-Horse Radish Peroxidase (CSE-HRP) Assay;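 on Maximum % activity (with co-corrector): co-corrector and positive control are both the same reference corrector at 2 µM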;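 on Maximum % activity (without co-corrector): percent of the 2 µM on-plate positive control corrector response above DMSO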
Format: cell-based
Conditions: for Emax / Maximum % activity (with co-corrector): maximum at any tested concentration, normalized to on-plate positive control; for Emax: read-out: Maximum % activity (without co-corrector)

[1] = test compound without co-corrector
[2] = test compound without co-corrector, read-out: EC50 (without co-corrector)
[3] = with co-corrector (2 μM of 3-[(2R,4R)-4-({[1-(2,2-difluoro-1,3-benzodioxol-5-yl)cyclopropyl]carbonyl}amino)-7-methoxy-3,4-dihydro-2H-chromen-2-yl]benzoic acid)
[4] = with co-corrector (2 μM of 3-[(2R,4R)-4-({[1-(2,2-difluoro-1,3-benzodioxol-5-yl)cyclopropyl]carbonyl}amino)-7-methoxy-3,4-dihydro-2H-chromen-2-yl]benzoic acid), read-out: EC50 (with co-corrector)

T1 sequence (P13569 with tags, fused parts or gaps DEL508-508): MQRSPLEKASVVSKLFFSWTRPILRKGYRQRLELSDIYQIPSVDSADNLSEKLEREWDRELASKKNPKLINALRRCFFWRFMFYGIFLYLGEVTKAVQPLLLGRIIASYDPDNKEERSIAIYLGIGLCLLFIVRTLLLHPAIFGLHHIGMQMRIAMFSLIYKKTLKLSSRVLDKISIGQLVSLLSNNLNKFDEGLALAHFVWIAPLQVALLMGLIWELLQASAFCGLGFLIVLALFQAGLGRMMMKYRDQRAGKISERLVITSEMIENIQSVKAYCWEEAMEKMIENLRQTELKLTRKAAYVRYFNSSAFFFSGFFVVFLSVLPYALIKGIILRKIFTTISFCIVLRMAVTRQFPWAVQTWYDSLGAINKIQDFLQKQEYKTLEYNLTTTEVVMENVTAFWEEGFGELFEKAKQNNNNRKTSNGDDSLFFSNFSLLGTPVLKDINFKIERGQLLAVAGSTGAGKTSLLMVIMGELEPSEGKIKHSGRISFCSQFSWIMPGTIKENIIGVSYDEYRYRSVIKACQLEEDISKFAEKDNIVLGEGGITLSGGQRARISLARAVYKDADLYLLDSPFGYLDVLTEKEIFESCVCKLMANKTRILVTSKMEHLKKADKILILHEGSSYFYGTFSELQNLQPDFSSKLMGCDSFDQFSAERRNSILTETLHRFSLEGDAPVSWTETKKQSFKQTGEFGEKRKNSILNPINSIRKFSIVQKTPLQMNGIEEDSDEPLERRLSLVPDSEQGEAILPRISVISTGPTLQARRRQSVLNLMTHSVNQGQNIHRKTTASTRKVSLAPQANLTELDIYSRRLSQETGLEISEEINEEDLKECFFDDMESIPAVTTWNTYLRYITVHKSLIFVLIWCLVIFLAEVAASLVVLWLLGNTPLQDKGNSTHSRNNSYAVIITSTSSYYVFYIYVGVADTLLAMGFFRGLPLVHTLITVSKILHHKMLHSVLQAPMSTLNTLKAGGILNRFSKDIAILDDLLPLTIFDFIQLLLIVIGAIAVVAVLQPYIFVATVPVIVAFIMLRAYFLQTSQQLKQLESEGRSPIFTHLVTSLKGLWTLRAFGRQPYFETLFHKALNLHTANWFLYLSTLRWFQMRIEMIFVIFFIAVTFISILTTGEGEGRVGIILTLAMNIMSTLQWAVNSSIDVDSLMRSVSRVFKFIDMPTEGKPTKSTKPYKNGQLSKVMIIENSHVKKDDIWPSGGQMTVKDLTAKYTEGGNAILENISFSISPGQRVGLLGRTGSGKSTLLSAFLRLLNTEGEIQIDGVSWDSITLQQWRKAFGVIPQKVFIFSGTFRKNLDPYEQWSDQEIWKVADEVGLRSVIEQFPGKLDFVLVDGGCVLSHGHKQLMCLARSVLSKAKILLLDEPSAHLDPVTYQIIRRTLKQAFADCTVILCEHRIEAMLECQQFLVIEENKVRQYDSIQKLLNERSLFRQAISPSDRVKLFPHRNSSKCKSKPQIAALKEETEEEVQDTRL

| SMILES | Emax [1] [%] | EC50 [2] [µM] | Maximum % activity (with co-corrector) [3] | EC50 [4] [µM] | Maximum % activity (with co-corrector) (with co-corrector (2 μM)) |
| --- | --- | --- | --- | --- | --- |
| COc1ncc(C(F)(F)F)cc1CN[C@H]1[C@H](C(C)(C)C)[C@@H](C(=O)O)N(C(=O)OC(C)C)[C@H]1c1cccnc1N1CCC1 [II-592] | > 200 | 1 to 10 | +++ (≥350) | 1 to 10 | – |
| COc1ccc(C2(C)CCC2)cc1CN[C@H]1[C@H](C(C)(C)C)[C@@H](C(=O)O)N(C(=O)[C@@H]2CCCO2)[C@H]1c1ccccc1C(C)C [II-593] | > 200 | 1 to 10 | +++ (≥350) | < 1 | – |
| COc1ncc(Br)cc1CN[C@H]1[C@H](C(C)(C)C)[C@@H](C(=O)O)N(C(=O)[C@@H]2CCCO2)[C@H]1c1ccccc1C(C)C [II-594] | > 200 | 1 to 10 | +++ (≥350) | < 1 | – |
| COc1ccc(C(F)(F)F)cc1CN[C@H]1[C@H](C(C)(C)C)[C@@H](C(=O)O)N(C(=O)[C@@H]2CCCO2)[C@H]1c1ccccc1C(C)C [II-595] | > 200 | < 1 | +++ (≥350) | < 1 | – |
| COc1ncc(C(F)(F)F)cc1CN[C@H]1[C@H](C(C)(C)C)[C@@H](C(=O)O)N(C(=O)[C@@H]2CCCO2)[C@H]1c1cccnc1N(C)C [II-596] | < 100 | 1 to 10 | ++ (≥150 and <350) | 1 to 10 | – |
| COc1ncc(C2CCC2)cc1CN[C@H]1[C@H](C(C)(C)C)[C@@H](C(=O)O)N(C(=O)[C@@H]2CCCO2)[C@H]1c1ccccc1C(F)F [II-597] | 100 to 200 | 1 to 10 | +++ (≥350) | 1 to 10 | – |
| COc1nc2ccccc2cc1CN[C@H]1[C@H](C(C)(C)C)[C@@H](C(=O)O)N(C(=O)C2CCOCC2)[C@H]1c1ccccc1C(C)C [II-598] | > 200 | 1 to 10 | +++ (≥350) | < 1 | – |
| COc1nc2ccccc2cc1CN[C@H]1[C@H](C(C)(C)C)[C@@H](C(=O)O)N(C(=O)[C@@H]2CCCO2)[C@H]1c1cccnc1N(C)C [II-599] | < 100 | 1 to 10 | ++ (≥150 and <350) | 1 to 10 | – |
| COc1nc2ccccc2cc1CN[C@H]1[C@H](C(C)(C)C)[C@@H](C(=O)O)N(C(=O)C2CCOCC2)[C@H]1c1cccnc1N(C)C [II-600] | < 100 | 1 to 10 | ++ (≥150 and <350) | 1 to 10 | – |
| COc1ccc(C(F)(F)F)cc1CN[C@@H]1[C@@H](C(C)(C)C)[C@H](C(=O)O)N(C(=O)[C@H](OC)c2ccccc2)[C@@H]1c1ccccc1 [III-68] | < 100 | > 10 | ++ (≥150 and <350) | 1 to 10 | – |
| CO[C@@H](C(=O)N1[C@H](c2ccccc2)[C@H](Nc2cc(C(F)(F)F)cc(C)n2)[C@@H](C(C)(C)C)[C@@H]1C(=O)O)c1ccccc1 [III-75] | < 100 | 1 to 10 | ++ (≥150 and <350) | 1 to 10 | – |
| CO[C@@H](C(=O)N1[C@H](C(=O)O)[C@@H](C(C)(C)C)[C@H](Nc2cc(C(F)(F)F)cc(C)n2)[C@@H]1c1ccccc1)c1ccccc1 [III-78] | < 100 | > 10 | ++ (≥150 and <350) | 1 to 10 | – |
| COc1cc(C(F)(F)F)ccc1CN[C@@H]1[C@@H](C(C)(C)C)[C@H](C(=O)O)N(C(=O)C2CCCCC2)[C@@H]1c1ccccc1OC [III-95] | < 100 | > 10 | – | 1 to 10 | ++ (≥150 and <350) |
| COc1ccc(C(F)(F)F)cc1CN[C@@H]1[C@@H](C(C)(C)C)[C@H](C(=O)O)N(C(=O)[C@H](OC)c2ccccc2)[C@@H]1c1ccccc1N(C)C [III-98] | < 100 | > 10 | – | 1 to 10 | ++ (≥150 and <350) |
| COc1ccc(Cl)cc1CN[C@@H]1[C@@H](C(C)(C)C)[C@H](C(=O)O)N(C(=O)[C@H](OC)c2ccccc2)[C@@H]1c1ccccc1N(C)C [III-99] | < 100 | > 10 | – | 1 to 10 | ++ (≥150 and <350) |
| COc1ccc(C(F)(F)F)cc1CN[C@H]1[C@H](C(C)(C)C)[C@@H](C(=O)O)N(C(=O)[C@](OC)(c2ccccc2)C(F)(F)F)[C@H]1c1ccccc1 [III-100] | < 100 | > 10 | – | 1 to 10 | ++ (≥150 and <350) |
| COc1cc(C(F)(F)F)ccc1CN[C@@H]1[C@@H](C(C)(C)C)[C@H](C(=O)O)N(C(=O)[C@@H](OC)c2ccccc2)[C@@H]1c1ccccc1 [III-101] | < 100 | > 10 | – | 1 to 10 | ++ (≥150 and <350) |

| SMILES | Emax [1] [%] | EC50 [2] [µM] | Maximum % activity (with co-corrector) [3] | EC50 [4] [µM] | Maximum % activity (with co-corrector) (with co-corrector (2 μM)) |
| --- | --- | --- | --- | --- | --- |
| COc1ccc(C(F)(F)F)cc1CN[C@@H]1[C@@H](C(C)(C)C)[C@H](C(=O)O)N(C(=O)[C@](OC)(c2ccccc2)C(F)(F)F)[C@@H]1c1ccccc1 [III-102] | < 100 | > 10 | – | 1 to 10 | ++ (≥150 and <350) |
| CO[C@H](C(=O)N1[C@H](C(=O)O)[C@@H](C(C)(C)C)[C@H](Nc2cc(C(F)(F)F)cc(C)n2)[C@@H]1c1ccccc1)c1ccccc1 [III-103] | < 100 | > 10 | – | 1 to 10 | + (<150) |
| COc1cc(C(F)(F)F)ccc1CN[C@@H]1[C@@H](C(C)(C)C)[C@H](C(=O)O)N(C(=O)[C@H]2CCCCO2)[C@@H]1c1ccccc1 [III-117] | < 100 | > 10 | – | 1 to 10 | ++ (≥150 and <350) |
| COc1ccc(Br)cc1CN[C@H]1[C@H](C(C)(C)C)[C@@H](C(=O)O)N(C(=O)C2CCCCC2)[C@H]1c1ccccc1 [III-118] | > 200 | < 1 | – | < 1 | +++ (≥350) |
| COc1cc2c(cc1CN[C@H]1[C@H](C(C)(C)C)[C@@H](C(=O)O)N(C(=O)C3CCCCC3)[C@H]1c1ccccc1)C(C)(C)CCC2(C)C [III-119] | 100 to 200 | < 1 | – | < 1 | +++ (≥350) |
| CC(C)(C)[C@H]1[C@H](NCc2ccc3c(c2)CCCO3)[C@H](c2ccccc2)N(C(=O)C2CCCCC2)[C@@H]1C(=O)O [III-120] | < 100 | > 10 | – | 1 to 10 | ++ (≥150 and <350) |
| CC(C)(C)[C@H]1[C@H](NCc2ccc(C#N)cc2F)[C@H](c2ccccc2)N(C(=O)C2CCCCC2)[C@@H]1C(=O)O [III-121] | < 100 | > 10 | – | 1 to 10 | ++ (≥150 and <350) |
| CC(C)(C)[C@H]1[C@H](NCc2ccc3c(c2)CCO3)[C@H](c2ccccc2)N(C(=O)C2CCCCC2)[C@@H]1C(=O)O [III-122] | < 100 | > 10 | – | 1 to 10 | ++ (≥150 and <350) |
| CC(C)(C)[C@H]1[C@H](NCc2ccc(F)cc2C(F)(F)F)[C@H](c2ccccc2)N(C(=O)C2CCCCC2)[C@@H]1C(=O)O [III-123] | < 100 | < 1 | – | < 1 | ++ (≥150 and <350) |
| CC(C)Oc1ccc(Cl)cc1CN[C@H]1[C@H](C(C)(C)C)[C@@H](C(=O)O)N(C(=O)C2CCCCC2)[C@H]1c1ccccc1 [III-124] | < 100 | 1 to 10 | – | < 1 | +++ (≥350) |
| CC(C)(C)[C@H]1[C@H](NCc2ccc(F)c(C#N)c2)[C@H](c2ccccc2)N(C(=O)C2CCCCC2)[C@@H]1C(=O)O [III-125] | < 100 | > 10 | – | 1 to 10 | ++ (≥150 and <350) |
| COc1ccc(CN[C@H]2[C@H](C(C)(C)C)[C@@H](C(=O)O)N(C(=O)C3CCCCC3)[C@H]2c2ccccc2)cc1Cl [III-126] | < 100 | 1 to 10 | – | 1 to 10 | ++ (≥150 and <350) |
| CC(C)(C)[C@H]1[C@H](NCc2ccc(F)cc2C#N)[C@H](c2ccccc2)N(C(=O)C2CCCCC2)[C@@H]1C(=O)O [III-127] | < 100 | > 10 | – | > 10 | + (<150) |
| CC(C)(C)[C@H]1[C@H](NCc2ccc(OC(F)(F)F)c(F)c2)[C@H](c2ccccc2)N(C(=O)C2CCCCC2)[C@@H]1C(=O)O [III-128] | < 100 | > 10 | – | 1 to 10 | ++ (≥150 and <350) |
| CC(C)(C)[C@H]1[C@H](NCc2ccc3c(c2)OCCCO3)[C@H](c2ccccc2)N(C(=O)C2CCCCC2)[C@@H]1C(=O)O [III-129] | < 100 | > 10 | – | 1 to 10 | ++ (≥150 and <350) |
| CC(C)(C)[C@H]1[C@H](NCc2ccc(Cl)c(Cl)c2)[C@H](c2ccccc2)N(C(=O)C2CCCCC2)[C@@H]1C(=O)O [III-130] | < 100 | > 10 | – | 1 to 10 | ++ (≥150 and <350) |
| CC(C)(C)[C@H]1[C@H](NCc2cc(Br)ccc2OC(F)F)[C@H](c2ccccc2)N(C(=O)C2CCCCC2)[C@@H]1C(=O)O [III-131] | < 100 | < 1 | – | 1 to 10 | +++ (≥350) |

Source: US20180099931A1 (AbbVie S.à.r.l., priority 2016, published 2018)
